US10597388B2, “Pyridazinone herbicides” (FMC CORPORATION, priority 2014, dated 2020)

Columns and labels:
Assay type in all cases: in vivo
[1] = tested on: johnsongrass (Sorghum halepense); assay: Test C greenhouse herbicide test, pre- and postemergence
Text: (§1) Seeds of plant species selected from blackgrass (Alopecurus myosuroides), ryegrass, Italian (Italian ryegrass, Lolium multiflorum), wheat (winter wheat, Triticum aestivum), galium (catchweed bedstraw, Galium aparine), corn (Zea mays), large crabgrass, large (large crabgrass, Digitaria sanguinalis), foxtail, giant (giant foxtail, Setaria faberii), johnsongrass (Sorghum halepense), lambsquarters (Chenopodium album), morningglory (Ipomoea coccinea), nutsedge, yellow (yellow nutsedge, Cyperus esculentus), pigweed (Amaranthus retroflexus), ragweed (common ragweed, Ambrosia elatior), soybean (Glycine max), barnyardgrass (Echinochloa crus-galli), oilseed rape (Brassica napus), waterhemp (common waterhemp, Amaranthus rudis), and velvetleaf (Abutilon theophrasti) were planted into a blend of loam soil and sand and treated preemergence with test chemicals formulated in a non-phytotoxic solvent mixture which included a surfactant.
(§2) At the same time, plants selected from these crop and weed species and also chickweed (common chickweed, Stellaria media), kochia (Kochia scoparia), and oat, wild (wild oat, Avena fatua), were planted in pots containing Redi-Earth® planting medium (Scotts Company, 14111 Scottslawn Road, Marysville, Ohio 43041) comprising spaghnum peat moss, vermiculite, wetting agent and starter nutrients and treated with postemergence applications of test chemicals formulated in the same manner. Plants ranged in height from 2 to 18 cm (1- to 4-leaf stage) for postemergence treatments. Treated plants and controls were maintained in a greenhouse for 13 to 15 d, after which time all species were compared to controls and visually evaluated. Plant response ratings, summarized in Table C, are based on a scale of 0 to 100 where 0 is no effect and 100 is complete control. A dash (-) response means no test result.

[2] = tested on: waterhemp (common waterhemp, Amaranthus rudis); assay: as above
Text: as §1, §2

kochia (Kochia scoparia) = assay: Test A greenhouse herbicide test, pre- and postemergence
Method in brief: (§3)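 Seeds in loam–sand blend received a preemergence directed soil spray; plants at 2–10 cm, one- to two-leaf stage, received postemergence sprays. Compounds in a non-phytotoxic solvent with surfactant. After about 10 d in a greenhouse, injury rated visually versus untreated controls on a 0–100 scale (100 = complete control).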

corn (Zea mays) = assay: as above; conditions: Postemergence; for Plant response rating, Corn: 125 g ai/ha, visual rating after approx. 10 d, 0 to 100 scale (0 no effect, 100 complete control); for Corn plant response rating: 500 g ai/ha, 0 to 100 scale, 0 is no effect, 100 is complete control
Method in brief: as §3

[3] = tested on: pigweed (Amaranthus retroflexus); assay: as above
Method in brief: as §3

[4] = tested on: ryegrass, Italian (Italian ryegrass, Lolium multiflorum); assay: as above
Method in brief: as §3

[5] = tested on: ragweed (common ragweed, Ambrosia elatior); assay: as above
Method in brief: as §3

[6] = tested on: wheat (Triticum aestivum); assay: as above; conditions: Postemergence; for Plant response rating, Wheat: 125 g ai/ha, visual rating after approx. 10 d, 0 to 100 scale (0 no effect, 100 complete control); for Wheat plant response rating: 500 g ai/ha, 0 to 100 scale, 0 is no effect, 100 is complete control
Method in brief: as §3

[7] = tested on: foxtail, giant (giant foxtail, Setaria faberii); assay: as above
Method in brief: as §3

[8] = tested on: barnyardgrass (Echinochloa crus-galli); assay: as above
Method in brief: as §3

[9] = Postemergence, 31 g ai/ha, 0 to 100 scale (0 no effect, 100 complete control)
[10] = Postemergence, 125 g ai/ha, scale 0 to 100, 0 is no effect, 100 is complete control
[11] = Postemergence, 250 g ai/ha, scale 0 to 100, 0 no effect, 100 complete control, 13 to 15 d
[12] = Preemergence, 31 g ai/ha, scale 0 to 100, 0 is no effect, 100 is complete control
[13] = Preemergence, 62 g ai/ha, scale 0 to 100, 0 is no effect, 100 is complete control
[14] = Preemergence, 125 g ai/ha, scale 0 to 100, 0 is no effect, 100 is complete control
[15] = Preemergence, 250 g ai/ha, scale 0 to 100, 0 no effect, 100 complete control
[16] = postemergence, 62 g ai/ha, scale 0 to 100, 0 no effect, 100 complete control
[17] = Postemergence, 125 g ai/ha, visual rating after approx. 10 d, 0 to 100 scale (0 no effect, 100 complete control)
[18] = Postemergence, 500 g ai/ha, 0 to 100 scale, 0 is no effect, 100 is complete control
[19] = Preemergence, 125 g ai/ha, 0 to 100 scale where 0 is no effect and 100 is complete control
[20] = Preemergence, 500 g ai/ha, 0 to 100 scale, 0 no effect, 100 complete control

## Cc1nn(C)c(=O)c(-c2c(C)sc3ccc(Br)cc23)c1O [Compound 22]
[1]; [9]
  Johnsongrass plant response rating: 5
[1]; [10]
  Plant response rating, Johnsongrass: 5
[1]; [11]
  Plant response rating, Johnsongrass: 5
[1]; [12]
  Plant response rating, Johnsongrass: 0
[1]; [13]
  Plant response rating, Johnsongrass: 0
[1]; [14]
  Plant response rating, Johnsongrass: 0
[1]; [15]
  Johnsongrass plant response rating: 0
[1]; [16]
  Johnsongrass plant response rating: 5
[2]; [9]
  Waterhemp plant response rating: 75
[2]; [10]
  Plant response rating, Waterhemp: 75
[2]; [11]
  Plant response rating, Waterhemp: 90
[2]; [13]
  Plant response rating, Waterhemp: 80
[2]; [14]
  Plant response rating, Waterhemp: 100
[2]; [15]
  Waterhemp plant response rating: 100
[2]; [16]
  Waterhemp plant response rating: 70
Kochia (Kochia scoparia); [17]
  Plant response rating, Kochia: 100
Kochia (Kochia scoparia); [18]
  Kochia plant response rating: 100
Kochia (Kochia scoparia); [19]
  Kochia plant response rating: 70
Kochia (Kochia scoparia); [20]
  Plant response rating, Kochia: 100
Corn (Zea mays)
  Plant response rating, Corn: 0
  Corn plant response rating: 0
[3]; [17]
  Plant response rating, Pigweed: 100
[3]; [18]
  Pigweed plant response rating: 100
[3]; [19]
  Pigweed plant response rating: 100
[3]; [20]
  Plant response rating, Pigweed: 100
[4]; [17]
  Plant response rating, Ryegrass, Italian: 80
[4]; [18]
  Ryegrass, Italian plant response rating: 100
[4]; [19]
  Ryegrass, Italian plant response rating: 100
[4]; [20]
  Plant response rating, Ryegrass, Italian: 100
[5]; [17]
  Plant response rating, Ragweed: 90
[5]; [18]
  Ragweed plant response rating: 100
[5]; [19]
  Ragweed plant response rating: 90
[5]; [20]
  Plant response rating, Ragweed: 90
[6]
  Plant response rating, Wheat: 0
  Wheat plant response rating: 0
[7]; [17]
  Plant response rating, Foxtail, Giant: 60
[7]; [18]
  Foxtail, Giant plant response rating: 90
[7]; [19]
  Foxtail, Giant plant response rating: 70
[7]; [20]
  Plant response rating, Foxtail, Giant: 90
[8]; [17]
  Plant response rating, Barnyardgrass: 30
[8]; [18]
  Barnyardgrass plant response rating: 50
[8]; [19]
  Barnyardgrass plant response rating: 10
[8]; [20]
  Plant response rating, Barnyardgrass: 70

## Cc1ccc2ccccc2c1-c1c(O)c(Br)nn(C)c1=O [Compound 23]
[1]; [9]
  Johnsongrass plant response rating: 5
[1]; [10]
  Plant response rating, Johnsongrass: 10
[1]; [11]
  Plant response rating, Johnsongrass: 40
[1]; [12]
  Plant response rating, Johnsongrass: 5
[1]; [13]
  Plant response rating, Johnsongrass: 5
[1]; [14]
  Plant response rating, Johnsongrass: 35
[1]; [15]
  Johnsongrass plant response rating: 35
[1]; [16]
  Johnsongrass plant response rating: 5
[2]; [9]
  Waterhemp plant response rating: 80
[2]; [10]
  Plant response rating, Waterhemp: 85
[2]; [11]
  Plant response rating, Waterhemp: 98
[2]; [13]
  Plant response rating, Waterhemp: 100
[2]; [14]
  Plant response rating, Waterhemp: 100
[2]; [15]
  Waterhemp plant response rating: 100
[2]; [16]
  Waterhemp plant response rating: 55
Kochia (Kochia scoparia); [17]
  Plant response rating, Kochia: 100
Kochia (Kochia scoparia); [18]
  Kochia plant response rating: 100
Kochia (Kochia scoparia); [19]
  Kochia plant response rating: 80
Kochia (Kochia scoparia); [20]
  Plant response rating, Kochia: 100
Corn (Zea mays)
  Plant response rating, Corn: 40
  Corn plant response rating: 50
[3]; [17]
  Plant response rating, Pigweed: 100
[3]; [18]
  Pigweed plant response rating: 100
[3]; [19]
  Pigweed plant response rating: 100
[3]; [20]
  Plant response rating, Pigweed: 100
[4]; [17]
  Plant response rating, Ryegrass, Italian: 100
[4]; [18]
  Ryegrass, Italian plant response rating: 100
[4]; [19]
  Ryegrass, Italian plant response rating: 80
[4]; [20]
  Plant response rating, Ryegrass, Italian: 90
[5]; [17]
  Plant response rating, Ragweed: 90
[5]; [18]
  Ragweed plant response rating: 100
[5]; [19]
  Ragweed plant response rating: 90
[5]; [20]
  Plant response rating, Ragweed: 90
[6]
  Plant response rating, Wheat: 50
  Wheat plant response rating: 80
[7]; [17]
  Plant response rating, Foxtail, Giant: 90
[7]; [18]
  Foxtail, Giant plant response rating: 90
[7]; [19]
  Foxtail, Giant plant response rating: 90
[7]; [20]
  Plant response rating, Foxtail, Giant: 90
[8]; [17]
  Plant response rating, Barnyardgrass: 80
[8]; [18]
  Barnyardgrass plant response rating: 90
[8]; [19]
  Barnyardgrass plant response rating: 90
[8]; [20]
  Plant response rating, Barnyardgrass: 90
